In ChEMBL document CHEMBL3991601, “The target landscape of clinical kinase drugs” (Science, 2017):
Counter-ions that a name gives are not always drawn. The source made the active and inactive calls. Rule as the data show it, for most assays here: actives have a measured Kd and inactives only a lower limit.

What was measured:
[1] = biological target: Eukaryotic translation initiation factor 2-alpha kinase 1 (Homo sapiens, UniProt Q9BQI3)
[2] = biological target: Casein kinase I isoform epsilon (Homo sapiens, UniProt P49674)
[3] = biological target: Serine/threonine-protein kinase 16 (Homo sapiens, UniProt O75716)
[4] = biological target: Calcium/calmodulin-dependent protein kinase kinase 2 (Homo sapiens, UniProt Q96RR4)
[5] = biological target: Glycogen synthase kinase-3 beta (Homo sapiens, UniProt P49841)
[6] = biological target: T1, MAP kinase-activated protein kinase 5 (Homo sapiens, UniProt Q8IW41)
T1 sequence (Q8IW41 whole entry): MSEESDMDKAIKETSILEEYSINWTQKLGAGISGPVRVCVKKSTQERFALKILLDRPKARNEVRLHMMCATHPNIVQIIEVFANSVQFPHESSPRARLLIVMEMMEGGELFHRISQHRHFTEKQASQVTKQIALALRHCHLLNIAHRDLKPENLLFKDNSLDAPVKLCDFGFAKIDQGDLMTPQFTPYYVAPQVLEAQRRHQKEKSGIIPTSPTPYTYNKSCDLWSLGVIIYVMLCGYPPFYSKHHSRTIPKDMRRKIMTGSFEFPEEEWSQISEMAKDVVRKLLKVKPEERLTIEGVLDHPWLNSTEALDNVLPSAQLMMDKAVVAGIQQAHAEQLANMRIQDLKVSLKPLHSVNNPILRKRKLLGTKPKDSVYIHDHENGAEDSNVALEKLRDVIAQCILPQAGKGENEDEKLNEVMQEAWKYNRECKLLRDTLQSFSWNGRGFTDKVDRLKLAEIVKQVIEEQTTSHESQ

[7] = biological target: Serine/threonine-protein kinase SIK2 (Homo sapiens, UniProt Q9H0K1)
[8] = biological target: High affinity nerve growth factor receptor (Homo sapiens, UniProt P04629)
[9] = biological target: T2, Dual specificity mitogen-activated protein kinase kinase 3 (Homo sapiens, UniProt P46734)
T2 sequence (P46734 whole entry): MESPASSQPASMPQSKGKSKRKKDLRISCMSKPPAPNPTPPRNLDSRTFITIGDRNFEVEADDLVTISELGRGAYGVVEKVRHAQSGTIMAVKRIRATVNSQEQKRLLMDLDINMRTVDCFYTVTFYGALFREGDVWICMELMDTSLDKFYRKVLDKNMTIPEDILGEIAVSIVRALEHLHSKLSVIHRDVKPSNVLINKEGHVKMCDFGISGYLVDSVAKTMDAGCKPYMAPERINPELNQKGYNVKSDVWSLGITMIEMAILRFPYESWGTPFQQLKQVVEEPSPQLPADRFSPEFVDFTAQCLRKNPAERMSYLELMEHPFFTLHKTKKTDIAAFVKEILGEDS

[10] = biological target: Cyclin-dependent kinase 1 (Homo sapiens, UniProt P06493)
Heme oxygenase 2 = biological target: T3, Heme oxygenase 2 (Homo sapiens, UniProt P30519)
T3 sequence (P30519 whole entry): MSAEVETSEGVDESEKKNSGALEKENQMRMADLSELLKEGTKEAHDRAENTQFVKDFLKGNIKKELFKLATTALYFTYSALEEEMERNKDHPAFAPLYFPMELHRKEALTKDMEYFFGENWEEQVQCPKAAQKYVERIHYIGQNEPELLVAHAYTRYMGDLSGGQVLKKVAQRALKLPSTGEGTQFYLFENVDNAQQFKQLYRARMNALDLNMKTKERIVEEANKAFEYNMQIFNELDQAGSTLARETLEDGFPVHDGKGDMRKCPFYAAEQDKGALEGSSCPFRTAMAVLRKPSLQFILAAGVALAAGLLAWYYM

[11] = biological target: T4, RNA cytidine acetyltransferase (Homo sapiens, UniProt Q9H0A0)
T4 sequence (Q9H0A0 whole entry): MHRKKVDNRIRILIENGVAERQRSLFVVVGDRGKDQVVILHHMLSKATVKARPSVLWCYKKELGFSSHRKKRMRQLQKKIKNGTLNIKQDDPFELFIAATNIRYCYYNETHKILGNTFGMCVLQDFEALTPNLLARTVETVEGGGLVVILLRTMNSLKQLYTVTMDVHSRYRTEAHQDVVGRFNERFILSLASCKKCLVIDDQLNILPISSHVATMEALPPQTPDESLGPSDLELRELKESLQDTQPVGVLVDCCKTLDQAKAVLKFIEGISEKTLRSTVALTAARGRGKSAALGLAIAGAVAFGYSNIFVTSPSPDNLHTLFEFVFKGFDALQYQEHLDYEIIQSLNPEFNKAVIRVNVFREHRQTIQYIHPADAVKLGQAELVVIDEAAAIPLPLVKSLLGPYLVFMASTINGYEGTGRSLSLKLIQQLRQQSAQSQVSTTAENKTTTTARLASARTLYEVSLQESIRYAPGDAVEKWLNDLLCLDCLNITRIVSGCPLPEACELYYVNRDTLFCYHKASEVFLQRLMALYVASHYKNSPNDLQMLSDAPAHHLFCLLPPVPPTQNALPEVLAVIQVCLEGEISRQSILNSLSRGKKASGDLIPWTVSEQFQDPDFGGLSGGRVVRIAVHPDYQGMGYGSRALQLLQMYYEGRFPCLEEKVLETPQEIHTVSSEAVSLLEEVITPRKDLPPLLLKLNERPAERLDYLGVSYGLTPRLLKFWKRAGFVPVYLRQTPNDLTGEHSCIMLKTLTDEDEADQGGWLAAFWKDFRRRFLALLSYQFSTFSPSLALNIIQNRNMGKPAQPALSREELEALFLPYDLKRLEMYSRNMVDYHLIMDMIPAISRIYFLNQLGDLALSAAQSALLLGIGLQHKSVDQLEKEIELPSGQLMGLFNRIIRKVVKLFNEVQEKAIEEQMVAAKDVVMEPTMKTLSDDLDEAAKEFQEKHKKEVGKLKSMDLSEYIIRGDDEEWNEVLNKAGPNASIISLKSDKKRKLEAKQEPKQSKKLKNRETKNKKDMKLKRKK

[12] = biological target: Mitogen-activated protein kinase kinase kinase 20 (Homo sapiens, UniProt Q9NYL2)
[13] = biological target: DNA topoisomerase 2-alpha (Homo sapiens, UniProt P11388)
Also: in the data inactive means no Kd found up to 30 µM.

Chain of Eukaryotic translation initiation factor 2-alpha kinase 1 (Q9BQI3 whole entry, canonical isoform): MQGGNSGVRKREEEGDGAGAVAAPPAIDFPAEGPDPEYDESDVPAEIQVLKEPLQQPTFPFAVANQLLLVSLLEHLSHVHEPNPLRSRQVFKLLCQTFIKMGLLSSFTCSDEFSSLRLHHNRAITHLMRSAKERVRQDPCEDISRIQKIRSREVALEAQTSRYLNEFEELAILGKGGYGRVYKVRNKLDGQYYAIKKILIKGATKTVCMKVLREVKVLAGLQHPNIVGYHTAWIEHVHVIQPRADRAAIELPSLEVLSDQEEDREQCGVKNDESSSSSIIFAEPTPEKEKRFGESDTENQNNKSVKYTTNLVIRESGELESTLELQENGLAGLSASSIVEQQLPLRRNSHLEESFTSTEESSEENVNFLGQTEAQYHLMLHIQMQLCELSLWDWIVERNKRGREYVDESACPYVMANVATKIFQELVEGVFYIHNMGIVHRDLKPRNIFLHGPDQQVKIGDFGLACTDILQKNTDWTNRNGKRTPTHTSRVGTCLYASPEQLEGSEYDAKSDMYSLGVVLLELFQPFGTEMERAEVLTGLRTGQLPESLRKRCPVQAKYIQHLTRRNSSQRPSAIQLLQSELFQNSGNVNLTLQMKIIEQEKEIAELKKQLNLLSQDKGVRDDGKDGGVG
Chain of Casein kinase I isoform epsilon (P49674 whole entry, canonical isoform): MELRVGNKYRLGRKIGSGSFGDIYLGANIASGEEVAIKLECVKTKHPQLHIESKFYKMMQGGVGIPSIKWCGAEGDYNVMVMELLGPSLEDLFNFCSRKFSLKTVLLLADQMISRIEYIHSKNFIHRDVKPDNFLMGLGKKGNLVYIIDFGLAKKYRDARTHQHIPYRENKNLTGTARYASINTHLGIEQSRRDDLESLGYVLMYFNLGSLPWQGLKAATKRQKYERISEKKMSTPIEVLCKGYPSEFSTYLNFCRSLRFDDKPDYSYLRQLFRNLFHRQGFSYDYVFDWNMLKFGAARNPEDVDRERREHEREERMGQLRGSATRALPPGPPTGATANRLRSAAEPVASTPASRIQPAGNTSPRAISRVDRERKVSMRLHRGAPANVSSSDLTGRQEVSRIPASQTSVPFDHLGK
Chain of Serine/threonine-protein kinase SIK2 (Q9H0K1 whole entry): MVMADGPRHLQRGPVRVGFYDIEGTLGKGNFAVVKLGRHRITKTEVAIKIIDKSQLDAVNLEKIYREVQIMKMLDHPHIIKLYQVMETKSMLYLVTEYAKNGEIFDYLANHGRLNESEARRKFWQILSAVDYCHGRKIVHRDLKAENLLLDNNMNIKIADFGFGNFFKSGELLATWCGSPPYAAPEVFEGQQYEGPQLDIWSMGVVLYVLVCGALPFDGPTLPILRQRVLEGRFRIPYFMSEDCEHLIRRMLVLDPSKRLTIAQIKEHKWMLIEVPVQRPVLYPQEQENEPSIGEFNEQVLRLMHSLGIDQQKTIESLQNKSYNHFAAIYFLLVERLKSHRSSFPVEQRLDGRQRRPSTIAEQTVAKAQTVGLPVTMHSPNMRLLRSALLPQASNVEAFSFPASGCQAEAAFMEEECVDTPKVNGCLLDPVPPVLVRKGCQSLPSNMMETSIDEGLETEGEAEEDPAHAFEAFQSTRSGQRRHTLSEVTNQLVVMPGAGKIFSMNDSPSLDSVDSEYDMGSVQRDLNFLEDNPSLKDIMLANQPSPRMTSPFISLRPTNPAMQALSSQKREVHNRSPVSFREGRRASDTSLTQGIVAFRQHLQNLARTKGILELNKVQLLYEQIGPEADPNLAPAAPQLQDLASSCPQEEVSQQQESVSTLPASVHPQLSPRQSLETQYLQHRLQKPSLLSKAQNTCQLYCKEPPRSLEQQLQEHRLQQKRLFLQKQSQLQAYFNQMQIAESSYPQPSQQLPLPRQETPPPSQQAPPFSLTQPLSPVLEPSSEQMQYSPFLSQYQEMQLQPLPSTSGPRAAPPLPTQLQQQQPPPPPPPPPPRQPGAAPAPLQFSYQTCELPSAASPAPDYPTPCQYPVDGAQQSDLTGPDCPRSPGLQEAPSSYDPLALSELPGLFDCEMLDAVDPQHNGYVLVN
Chain of Serine/threonine-protein kinase 16 (O75716 whole entry): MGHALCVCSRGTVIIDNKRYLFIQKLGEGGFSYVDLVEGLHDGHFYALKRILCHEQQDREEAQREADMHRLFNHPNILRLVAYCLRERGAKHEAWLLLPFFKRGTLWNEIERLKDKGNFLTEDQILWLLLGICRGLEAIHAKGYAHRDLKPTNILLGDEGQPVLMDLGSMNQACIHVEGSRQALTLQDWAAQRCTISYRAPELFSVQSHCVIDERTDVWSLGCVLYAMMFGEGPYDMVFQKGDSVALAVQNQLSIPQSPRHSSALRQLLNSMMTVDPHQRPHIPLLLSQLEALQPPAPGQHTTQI
Chain of High affinity nerve growth factor receptor (P04629 whole entry): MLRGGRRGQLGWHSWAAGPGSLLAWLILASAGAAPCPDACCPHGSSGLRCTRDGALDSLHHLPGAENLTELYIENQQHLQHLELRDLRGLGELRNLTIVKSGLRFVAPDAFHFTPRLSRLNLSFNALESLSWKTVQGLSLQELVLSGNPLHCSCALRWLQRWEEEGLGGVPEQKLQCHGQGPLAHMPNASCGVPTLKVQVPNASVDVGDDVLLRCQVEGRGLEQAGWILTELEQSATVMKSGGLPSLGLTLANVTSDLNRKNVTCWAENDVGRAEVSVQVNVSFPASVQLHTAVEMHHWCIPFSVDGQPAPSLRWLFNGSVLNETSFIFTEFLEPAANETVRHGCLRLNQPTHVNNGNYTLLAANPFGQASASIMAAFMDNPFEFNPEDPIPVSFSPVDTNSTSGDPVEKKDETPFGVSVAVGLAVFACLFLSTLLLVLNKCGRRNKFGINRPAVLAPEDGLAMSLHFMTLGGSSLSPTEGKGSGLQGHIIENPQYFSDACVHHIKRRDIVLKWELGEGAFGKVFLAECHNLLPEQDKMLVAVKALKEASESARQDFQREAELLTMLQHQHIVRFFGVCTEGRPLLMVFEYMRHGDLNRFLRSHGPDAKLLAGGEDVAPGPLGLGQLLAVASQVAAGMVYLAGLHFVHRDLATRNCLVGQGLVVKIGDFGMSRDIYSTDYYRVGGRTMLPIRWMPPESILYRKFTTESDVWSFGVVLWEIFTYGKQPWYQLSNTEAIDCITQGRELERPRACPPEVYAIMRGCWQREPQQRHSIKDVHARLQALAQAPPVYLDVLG
Chain of Cyclin-dependent kinase 1 (P06493 whole entry): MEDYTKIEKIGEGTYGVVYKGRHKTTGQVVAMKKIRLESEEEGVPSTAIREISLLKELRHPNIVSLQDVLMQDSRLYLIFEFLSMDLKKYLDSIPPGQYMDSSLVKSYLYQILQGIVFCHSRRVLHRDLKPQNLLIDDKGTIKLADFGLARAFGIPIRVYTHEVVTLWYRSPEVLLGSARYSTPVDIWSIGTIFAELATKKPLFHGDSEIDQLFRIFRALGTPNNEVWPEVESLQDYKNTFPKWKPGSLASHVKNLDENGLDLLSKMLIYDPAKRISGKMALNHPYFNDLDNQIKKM
Chain of Calcium/calmodulin-dependent protein kinase kinase 2 (Q96RR4 whole entry): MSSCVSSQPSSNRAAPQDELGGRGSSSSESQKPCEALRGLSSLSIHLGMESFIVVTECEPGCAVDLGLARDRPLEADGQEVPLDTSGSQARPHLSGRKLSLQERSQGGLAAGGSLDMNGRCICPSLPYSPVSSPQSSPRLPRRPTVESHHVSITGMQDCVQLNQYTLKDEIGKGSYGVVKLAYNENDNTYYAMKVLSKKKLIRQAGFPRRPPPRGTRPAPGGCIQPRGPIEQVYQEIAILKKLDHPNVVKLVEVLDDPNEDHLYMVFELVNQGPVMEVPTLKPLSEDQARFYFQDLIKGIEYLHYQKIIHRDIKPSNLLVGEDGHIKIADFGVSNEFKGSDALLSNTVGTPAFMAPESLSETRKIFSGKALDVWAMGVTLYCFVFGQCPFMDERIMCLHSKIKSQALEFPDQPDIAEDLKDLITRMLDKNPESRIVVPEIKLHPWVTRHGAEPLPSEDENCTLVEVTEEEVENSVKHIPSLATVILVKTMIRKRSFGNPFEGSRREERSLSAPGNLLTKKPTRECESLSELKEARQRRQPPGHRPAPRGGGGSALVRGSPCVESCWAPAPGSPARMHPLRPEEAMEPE
Chain of Glycogen synthase kinase-3 beta (P49841 whole entry): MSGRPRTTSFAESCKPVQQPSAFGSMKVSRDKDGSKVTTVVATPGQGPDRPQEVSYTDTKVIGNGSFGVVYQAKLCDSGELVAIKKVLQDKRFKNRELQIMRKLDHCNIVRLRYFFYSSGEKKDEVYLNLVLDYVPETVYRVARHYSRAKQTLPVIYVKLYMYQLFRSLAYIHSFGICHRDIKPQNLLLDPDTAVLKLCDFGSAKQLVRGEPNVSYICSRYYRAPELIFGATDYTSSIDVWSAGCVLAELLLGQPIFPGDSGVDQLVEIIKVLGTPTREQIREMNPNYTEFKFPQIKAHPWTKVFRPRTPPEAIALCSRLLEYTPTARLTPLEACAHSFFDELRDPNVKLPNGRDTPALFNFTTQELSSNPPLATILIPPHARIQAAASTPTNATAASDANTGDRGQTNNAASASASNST

SMILES: Cc1cc(C(=O)NOCCO)c(Nc2ccc(I)cc2F)n(C)c1=O [AZD-8330]
- Kd [1]: 1.82 µM
- Kd [2]: > 30 µM (inactive)
- Kd [3]: > 30 µM (inactive)
- Kd [4]: > 30 µM (inactive)
- Kd [5]: > 30 µM (inactive)
- Kd [6]: > 30 µM (inactive)
- Kd [7]: > 30 µM (inactive)
- Kd [8]: > 30 µM (inactive)
- Kd [9]: > 30 µM (inactive)
- Kd [10]: > 30 µM (inactive)
- Kd (Heme oxygenase 2): > 30 µM (inactive)
- Kd [11]: > 30 µM (inactive)
- Kd [12]: > 30 µM (inactive)
- Kd [13]: > 30 µM (inactive)

SMILES: Cn1cnc2c(F)c(Nc3ccc(Br)cc3F)c(C(=O)NOCCO)cc21 [BINIMETINIB]
- Kd [1]: > 30 µM (inactive)
- Kd [2]: > 30 µM (inactive)
- Kd [3]: > 30 µM (inactive)
- Kd [4]: > 30 µM (inactive)
- Kd [5]: > 30 µM (inactive)
- Kd [6]: > 30 µM (inactive)
- Kd [7]: > 30 µM (inactive)
- Kd [8]: > 30 µM (inactive)
- Kd [9]: > 30 µM (inactive)
- Kd [10]: > 30 µM (inactive)
- Kd (Heme oxygenase 2): > 30 µM (inactive)
- Kd [11]: > 30 µM (inactive)
- Kd [12]: > 30 µM (inactive)
- Kd [13]: > 30 µM (inactive)

SMILES: COc1cc2ncnc(Oc3cccc(NC(=O)Nc4cc(C(C)(C)C(F)(F)F)on4)c3)c2cc1OC [CEP-32496]
- Kd [1]: > 30 µM (inactive)
- Kd [2]: > 30 µM (inactive)
- Kd [3]: > 30 µM (inactive)
- Kd [4]: > 30 µM (inactive)
- Kd [5]: > 30 µM (inactive)
- Kd [6]: > 30 µM (inactive)
- Kd [7]: > 30 µM (inactive)
- Kd [8]: > 30 µM (inactive)
- Kd [9]: > 30 µM (inactive)
- Kd [10]: > 30 µM (inactive)
- Kd (Heme oxygenase 2): > 30 µM (inactive)
- Kd [11]: > 30 µM (inactive)
- Kd [12]: 0.998 µM (active)
- Kd [13]: > 30 µM (inactive)

SMILES: Cc1cc(Nc2ncc(Cl)c(Nc3ccccc3S(=O)(=O)C(C)C)n2)c(OC(C)C)cc1C1CCNCC1 [CERITINIB]
- Kd [1]: > 30 µM (inactive)
- Kd [2]: > 30 µM (inactive)
- Kd [3]: > 30 µM (inactive)
- Kd [4]: 5.43 µM (active)
- Kd [5]: > 30 µM (inactive)
- Kd [6]: > 30 µM (inactive)
- Kd [7]: > 30 µM (inactive)
- Kd [8]: > 30 µM (inactive)
- Kd [9]: > 30 µM (inactive)
- Kd [10]: > 30 µM (inactive)
- Kd (Heme oxygenase 2): > 30 µM (inactive)
- Kd [11]: > 30 µM (inactive)
- Kd [12]: > 30 µM (inactive)
- Kd [13]: > 30 µM (inactive)

SMILES: COCC(=O)NC/C=C/c1ccc2ncnc(Nc3ccc(Oc4ccc(C)nc4)c(C)c3)c2c1 [CP-724714]
- Kd [1]: > 30 µM (inactive)
- Kd [2]: > 30 µM (inactive)
- Kd [3]: > 30 µM (inactive)
- Kd [4]: > 30 µM (inactive)
- Kd [5]: > 30 µM (inactive)
- Kd [6]: > 30 µM (inactive)
- Kd [7]: > 30 µM (inactive)
- Kd [8]: > 30 µM (inactive)
- Kd [9]: > 30 µM (inactive)
- Kd [10]: > 30 µM (inactive)
- Kd (Heme oxygenase 2): > 30 µM (inactive)
- Kd [11]: > 30 µM (inactive)
- Kd [12]: > 30 µM (inactive)
- Kd [13]: > 30 µM (inactive)

SMILES: C#Cc1cccc(Nc2ncnc3cc(OC)c(OCCCCCCC(=O)NO)cc23)c1 [CUDC-101]
- Kd [1]: > 30 µM (inactive)
- Kd [2]: > 30 µM (inactive)
- Kd [3]: > 30 µM (inactive)
- Kd [4]: > 30 µM (inactive)
- Kd [5]: > 30 µM (inactive)
- Kd [6]: > 30 µM (inactive)
- Kd [7]: > 30 µM (inactive)
- Kd [8]: > 30 µM (inactive)
- Kd [9]: > 30 µM (inactive)
- Kd [10]: > 30 µM (inactive)
- Kd (Heme oxygenase 2): > 30 µM (inactive)
- Kd [11]: > 30 µM (inactive)
- Kd [12]: > 30 µM (inactive)
- Kd [13]: > 30 µM (inactive)

SMILES: CCS(=O)(=O)N1CCN(c2ccc(Nc3ncc(C(N)=O)c(NC4CC4)n3)cc2)CC1 [Cerdulatinib Hydrochloride]
- Kd [1]: 3.72 µM
- Kd [2]: > 30 µM (inactive)
- Kd [3]: > 30 µM (inactive)
- Kd [4]: > 30 µM (inactive)
- Kd [5]: > 30 µM (inactive)
- Kd [6]: > 30 µM (inactive)
- Kd [7]: 0.128 µM (active)
- Kd [8]: > 30 µM (inactive)
- Kd [9]: 1.48 µM (active)
- Kd [10]: > 30 µM (inactive)
- Kd (Heme oxygenase 2): > 30 µM (inactive)
- Kd [11]: > 30 µM (inactive)
- Kd [12]: > 30 µM (inactive)
- Kd [13]: > 30 µM (inactive)

SMILES: Cc1cccc(-c2nn3c(c2-c2ccnc4ccc(C(N)=O)cc24)CCC3)n1 [GALUNISERTIB]
- Kd [1]: > 30 µM (inactive)
- Kd [2]: 7.9 µM (active)
- Kd [3]: > 30 µM (inactive)
- Kd [4]: > 30 µM (inactive)
- Kd [5]: > 30 µM (inactive)
- Kd [6]: > 30 µM (inactive)
- Kd [7]: > 30 µM (inactive)
- Kd [8]: > 30 µM (inactive)
- Kd [9]: > 30 µM (inactive)
- Kd [10]: > 30 µM (inactive)
- Kd (Heme oxygenase 2): > 30 µM (inactive)
- Kd [11]: > 30 µM (inactive)
- Kd [12]: > 30 µM (inactive)
- Kd [13]: > 30 µM (inactive)

SMILES: CCn1cc(-c2ccnc3[nH]c(-c4cccc(CN(C)C)c4)cc23)c(-c2ccc(NC(=O)N(C)C)cc2)n1 [GSK-1070916]
- Kd [1]: > 30 µM (inactive)
- Kd [2]: > 30 µM (inactive)
- Kd [3]: > 30 µM (inactive)
- Kd [4]: > 30 µM (inactive)
- Kd [5]: > 30 µM (inactive)
- Kd [6]: > 30 µM (inactive)
- Kd [7]: 0.685 µM (active)
- Kd [8]: 5.95 µM (active)
- Kd [9]: > 30 µM (inactive)
- Kd [10]: > 30 µM (inactive)
- Kd (Heme oxygenase 2): > 30 µM (inactive)
- Kd [11]: > 30 µM (inactive)
- Kd [12]: > 30 µM (inactive)
- Kd [13]: > 30 µM (inactive)

SMILES: COc1ccc(S(=O)(=O)N(C(C)=O)c2ccccc2/C=C/c2cc[n+]([O-])cc2)cc1 [HMN-214]
- Kd [1]: > 30 µM (inactive)
- Kd [2]: > 30 µM (inactive)
- Kd [3]: > 30 µM (inactive)
- Kd [4]: > 30 µM (inactive)
- Kd [5]: > 30 µM (inactive)
- Kd [6]: > 30 µM (inactive)
- Kd [7]: > 30 µM (inactive)
- Kd [8]: > 30 µM (inactive)
- Kd [9]: > 30 µM (inactive)
- Kd [10]: > 30 µM (inactive)
- Kd (Heme oxygenase 2): > 30 µM (inactive)
- Kd [11]: > 30 µM (inactive)
- Kd [12]: > 30 µM (inactive)
- Kd [13]: > 30 µM (inactive)

SMILES: CNC(=O)c1cccc2cc(Oc3ccnc4cc(OCC5(N)CC5)c(OC)cc34)ccc12 [LUCITANIB]
- Kd [1]: > 30 µM (inactive)
- Kd [2]: > 30 µM (inactive)
- Kd [3]: > 30 µM (inactive)
- Kd [4]: > 30 µM (inactive)
- Kd [5]: > 30 µM (inactive)
- Kd [6]: > 30 µM (inactive)
- Kd [7]: > 30 µM (inactive)
- Kd [8]: > 30 µM (inactive)
- Kd [9]: > 30 µM (inactive)
- Kd [10]: > 30 µM (inactive)
- Kd (Heme oxygenase 2): > 30 µM (inactive)
- Kd [11]: > 30 µM (inactive)
- Kd [12]: > 30 µM (inactive)
- Kd [13]: > 30 µM (inactive)
